Measured values as given in US10993923B2, “Method for ameliorating fibrosis using 1-[4-chloro-3-(trifluoromethyl)phenyl]-3-[3-(4-cyanophenoxy)phenyl]urea” (priority 2016, dated 2021).

What was measured:
[1] = test system: bleomycin-induced pulmonary fibrosis in mice; assay: Bleomycin-induced pulmonary fibrosis in mice; format: in vivo
Description: Male C57BL/6J mice (6-8 weeks of age) were obtained from the National Laboratory Animal Center (Taipei, Taiwan). All experimental procedures using these mice were performed according to protocols approved by the Institutional Laboratory Animal Care and Use Committee of Cardinal Tien Hospital. Each mouse was housed in cages (IVC; individual ventilation cage), and given daily photoperiod for 12 hours. Room temperature was maintained at 22-25° C., and humidity was maintained at 60 to 70%. Ventilation rate was remained at 16-18 times/hour. Food and drinking water (Altromin 1326 mice feed, Altromin, Germany) was freely given. All operations were executed in accordance with the standards of animal experimental animal operation of law. Management and feeding of animals were in compliant with guidance for care and use of laboratory (NRC 1996) rule approach implementation.
Pulmonary fibrosis was induced using bleomycin sulfate in male C57BL/6J mice (FIG. 1). The mice were intraperitoneally injected (IP) under anesthesia with Avertin (240 mg/Kg). On day 0 (n=20), a single dose of bleomycin (BLM) (1 mg=1000 IU, clinical level, Bleomycine Bellon, Sanofi-Aventis, France) was received in the mice (3.5 mg/kg) via intranasal instillation. The mice in the control group (n=10) were given saline only. On day 14 after intranasal BLM instillation, BLM treated mice were randomized into two groups receiving vehicle or 1-[4-chloro-3-(trifluoromethyl)phenyl]-3-[3-(4-cyanophenoxy)phenyl]urea until the end of the experiment. From day 14 to day 28, mice were administered intraperitoneally with 7.5 mg/kg/day of 1-[4-chloro-3-(trifluoromethyl)phenyl]-3-[3-(4-cyanophenoxy)phenyl]urea daily at a dose of 10 mL/kg body weight. The experimental time was 28 days and the 1-[4-chloro-3-(trifluoromethyl)phenyl]-3-[3-(4-cyanophenoxy)phenyl]urea compound was administered within 14 to 28 days.
The paraffin embedded tissue array blocks were cut into 4-μm-thick sections for H&E staining. For each case, carcinoma type, cell differentiation, growth pattern, tumor cell nuclear morphology, metaplasia, calcification, necrosis, mitosis count, invasion status and other specific differentiations were re-checked by two pathologists Immunohistochemical (IHC) staining was performed using a Ventana BenchMark XT automated stainer (Ventana, Tucson, Ariz.). Briefly, 4-μm-thick sections were cut consecutively from formalin-fixed, paraffin-embedded tissue. These sections were then mounted on silanized slides and allowed to dry overnight at 37° C. After deparaffinization and rehydration, the slides were incubated with 3% hydrogen peroxide solution for 5 minutes. After being washed with the supplied buffer, the tissue sections were repaired for 40 minutes with ethylenediamine tetraacetic acid.
Hydroxyproline analysis was performed using a hydroxyproline test kit following the manufacturer's instructions (Cell BioLabs, Inc., USA). Lung tissue was hydrolyzed in 12N HCl at 120° C. for 3 hours, and then washed and suspended in H2O. The tissue suspension was then mixed with chloramine-T at room temperature for 30 minutes. Then Ehrlich's reagent was added and reacted at 60° C. for 90 minutes. After that, the absorbance at 540 nm was measured.
Mice lung collagen was measured in lung homogenate using a Sircol assay (Biocolor, UK) following the manufacturer's instructions. Briefly, lung tissue homogenates were mixed with Sircol dye and centrifuged. The precipitate was resuspended in NaOH and the absorbance at 550 nm was measured. The absorbance obtained is directly proportional to the concentration of the recently synthesized collagen.
Whole-cell extracts were obtained via RIPA buffer (Millipore, USA) and protein concentrations were quantified via a BCA protein assay kit (Thermo Fisher Scientific, USA). 20 or 25 μg of protein was added to various percentages of SDS-sodium dodecyl sulfate-acrylamide gel and blotted onto a polyvinylidene fluoride (PVDF) membrane. […]

SHP-1 = target: T1, SHP-1 (Homo sapiens, UniProt P29350); assay: SHP-1 phosphatase activity, LX2 cells; format: cell-based
T1 construct: LX2 cell protein extract were reacted with anti-SHP-1 antibody in immunoprecipitation buffer overnight; endogenous in cells; host or cells: LX2 cells
Description: After drug treatment, mouse fibroblasts (NIH3T3 cell line), human lung epithelial cells (A549 cell line) or LX2 cell protein extract were reacted with anti-SHP-1 antibody in immunoprecipitation buffer overnight. Protein A/G Sepharose Fast Flow Beads (GE) were added to each sample, followed by a rotation reaction at 4° C. for 3 hours. The 96EnzChek® tyrosine phosphatase assay kit (R-22067) was used for SHP-1 activity assay (Invitrogen, USA).
Plasmids encoding the human wild-type SHP-1 and SHP-1 mutant, in which the N—SH2 domain was truncated (dN1) or one aspartic acid at site 61 was changed into an alanine residue (D61A) were cloned into the pCMV6-entry vector with myc-tag. These mutants were confirmed through DNA sequencing. Smart-pool siRNA, including the control (D-001810-10), and SHP-1 (PTPN6, L-009778-00-0005) were obtained from Dharmacon Inc. (Chicago, Ill., USA). For transient expression, SHP-1 plasmids or siRNA (final concentration, 100 nM) with the Lipofectamine 2000 transfection reagent were pretransfected into the LX2 cells for 24 h, following the manufacturer's instructions.

[2] = Western blot, bleomycin model after treatment, FIG. 6

T1 sequence (P29350 whole entry): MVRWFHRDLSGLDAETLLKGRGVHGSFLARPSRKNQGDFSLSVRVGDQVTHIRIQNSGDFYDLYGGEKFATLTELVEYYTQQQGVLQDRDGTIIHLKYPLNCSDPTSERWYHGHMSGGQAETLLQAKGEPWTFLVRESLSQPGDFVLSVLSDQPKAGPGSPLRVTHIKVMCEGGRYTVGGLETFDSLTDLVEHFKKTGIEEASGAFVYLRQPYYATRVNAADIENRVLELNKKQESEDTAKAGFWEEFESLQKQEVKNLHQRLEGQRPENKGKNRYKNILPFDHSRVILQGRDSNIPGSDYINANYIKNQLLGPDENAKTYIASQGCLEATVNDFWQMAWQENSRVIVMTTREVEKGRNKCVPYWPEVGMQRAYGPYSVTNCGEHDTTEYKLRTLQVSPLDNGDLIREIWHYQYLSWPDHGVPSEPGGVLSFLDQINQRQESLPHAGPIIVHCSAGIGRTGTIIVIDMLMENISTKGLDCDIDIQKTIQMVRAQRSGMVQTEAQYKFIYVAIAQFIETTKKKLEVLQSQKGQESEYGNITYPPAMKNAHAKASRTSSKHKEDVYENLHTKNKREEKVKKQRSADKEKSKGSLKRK

Compound: N#Cc1ccc(Oc2cccc(NC(=O)Nc3ccc(Cl)c(C(F)(F)F)c3)c2)cc1 [1-[4-chloro-3-(trifluoromethyl)phenyl]-3-[3-(4-cyanophenoxy)phenyl]urea]
- tolerability (drug-related adverse events) ([1]; 7.5 mg/kg dose, daily, day 14 to day 28 after bleomycin): well tolerated
- fibrin deposition (Masson's trichrome staining positive area) ([1]; 7.5 mg/kg/day, day 14 to 28, FIG. 3): significantly reduced
- pathological changes of lung sections (hematoxylin-eosin staining) ([1]; 7.5 mg/kg/day, day 14 to 28, versus BLM group, FIG. 2): significantly improved
- collagen content of mice lung ([1]; Sircol assay, 7.5 mg/kg/day, day 14 to 28, FIG. 5): improved the accumulation of collagen
- P-STAT3 [1, 2]: decreased
- amount of fibronectin [1, 2]: decreased
- expression level of E-cadherin [1, 2]: increased
- decrease of hydroxyproline (Hyp) content compared with the BLM group ([1]; lung tissue, 7.5 mg/kg/day, day 14 to 28, FIG. 4): about 22%
- SHP-1 activity in the ectopic expression of the vector and wild-type SHP-1 (SHP-1; FIG. 17C): significantly increased the SHP-1 activity
- SHP-1 activity (SHP-1; LX2, sorafenib 5 μM, compound 2.5 or 5 μM, FIG. 16C): significantly increased the SHP-1 activity at a lower concentration
- enhancing SHP-1 activity, compared with sorafenib (SHP-1; test system not stated at the place, text refers to FIG. 2A): better than the known anti-fibrosis drug sorafenib
